# Results published in patent US8362000B2, “Azetidinyl diamides as monoacylglycerol lipase inhibitors” (Janssen Pharmaceutica NV, priority 2009, dated 2013).
# Where a chain is given by its changes, count along the chain named. pIC50, pKd: −log10 of the molar value. Where two headings read alike, the source gives them in different places.
# What was measured:
# mutant MGL = target: T1, mutant MGL (Homo sapiens, UniProt Q99685, L169S/L176S); experiment: MGL ThermoFluor assay - mutant; assay type: binding; settings: for Kd: ThermoFluor, read-out: MGL mutant ThermoFluor qKd (μM) (using qNMR conc.)
# T1 sequence (Q99685 1-303 L169S/L176S): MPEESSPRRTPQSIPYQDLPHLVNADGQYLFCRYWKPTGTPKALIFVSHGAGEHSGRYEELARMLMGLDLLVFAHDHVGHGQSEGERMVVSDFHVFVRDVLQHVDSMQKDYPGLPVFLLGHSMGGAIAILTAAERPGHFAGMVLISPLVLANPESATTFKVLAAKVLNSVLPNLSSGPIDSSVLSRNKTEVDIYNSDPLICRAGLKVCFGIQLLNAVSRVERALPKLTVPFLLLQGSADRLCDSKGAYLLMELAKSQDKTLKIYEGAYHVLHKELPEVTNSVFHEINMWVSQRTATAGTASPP
# [1] = system: CFA-induced paw radiant heat hypersensitivity; experiment: CFA-induced paw radiant heat hypersensitivity; assay type: in vivo, rat; settings: 30 mg/kg p.o., HPβCD, last time point 180 or 300 min; for inhibition in vivo at 30 mg/kg: Rattus norvegicus, po
# [2] = target: T2, purified wild type MGL (wt-MGLL 6H-11-313) (Homo sapiens, UniProt Q99685)
# T2 sequence (Q99685 1-303): T1 sequence (Q99685 1-303 L169S/L176S) with S169L, S176L
# MGL = target: T3, MGL (Rattus norvegicus, UniProt Q8R431); experiment: 2-AG accumulation assay in rat brain homogenate; assay type: biochemical; settings: rat brain homogenate, 2-AG accumulation as percent of vehicle; for 2-AG accumulation, % of vehicle control at 1 µM: read-out: Rat Brain 2AG % VehCntrl (%) @ 1 μM; for 2-AG accumulation, % of vehicle control at 0.1 µM: compound 0.1 μM, read-out: Rat Brain 2AG % VehCntrl (%) @ 0.1 μM; for 2-AG accumulation, % of vehicle control at 10 µM: compound 10 μM, read-out: Rat Brain 2AG % VehCntrl (%) @ 10 μM
# T3 construct: one g rat brain was homogenized using a Polytron homogenizer; from tissue; host or cells: rat brain homogenate
# T3 sequence (Q8R431 1-303): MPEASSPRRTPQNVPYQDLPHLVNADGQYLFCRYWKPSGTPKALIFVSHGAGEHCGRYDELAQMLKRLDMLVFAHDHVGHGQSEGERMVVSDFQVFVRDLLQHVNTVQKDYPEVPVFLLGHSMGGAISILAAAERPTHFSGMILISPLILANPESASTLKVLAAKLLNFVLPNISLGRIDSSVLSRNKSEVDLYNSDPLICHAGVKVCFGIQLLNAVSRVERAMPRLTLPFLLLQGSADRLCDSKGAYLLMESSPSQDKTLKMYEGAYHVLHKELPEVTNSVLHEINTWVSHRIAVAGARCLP
# [3] = ThermoFluor concentration-response, read-out: MGL mutant ThermoFluor Kd
# [4] = group mean values, read-out: CFA thermal hypersensitivity Method 1: peak % reversal
# [5] = individual animal values, read-out: CFA thermal hypersensitivity Method 2: peak % reversal
# [6] = ThermoFluor thermal stability binding assay, read-out: MGL mutant ThermoFluor Kd
# [7] = compound concentration measured by qNMR
SMILES,pKd (mutant MGL; [3]),"inhibition in vivo at 30 mg/kg [1, 4]",pIC50 [2],"2-AG accumulation, % of vehicle control at 1 µM (MGL; compound 1 μM)",further results
O=C(c1cscn1)N1CCN(C2CN(C(=O)c3sc4cc(C(F)(F)F)ccc4c3F)C2)CC1 [Cpd 653],7.96,-10.7%,8.15,861%,–
"Cc1c(C(=O)N2CC(N3CCN(C(=O)c4ccc[nH]4)CC3)C2)sc2cc(C(F)(F)F)ccc12 [Cpd 657, 1-(1-{[3-Methyl-6-(trifluoromethyl)-1-benzothiophen-2-yl]carbonyl}azetidin-3-yl)-4-(1H-pyrrol-2-ylcarbonyl)piperazine]",8.70,66%,8.05,581%,"pKd (mutant MGL; compound concentration measured by qNMR, read-out: MGL mutant ThermoFluor qKd (using qNMR conc.)): 8.70"
O=C(c1ccc(Oc2cccc(Cl)c2)c(F)c1)N1CC(N2CCN(C(=O)c3cscn3)CC2)C1 [Cpd 662],7.00,21%,7.96,274%,"inhibition in vivo at 30 mg/kg [1, 5]: 24%"
O=C(c1ccc(Oc2ncc(C(F)(F)F)cc2Cl)cc1)N1CC(N2CCN(C(=O)c3nccs3)CC2)C1 [Cpd 663],7.70,33.9%,7.96,588%,–
O=C(c1cscn1)N1CCN(C2CN(C(=O)c3sc4cc(C(F)(F)F)c(F)cc4c3Cl)C2)CC1 [Cpd 666],–,-3.1%,7.89,359%,pKd (mutant MGL; [6]): 8.70; Kd (mutant MGL; [7]): 0.003 µM
O=C(c1cscn1)N1CCN(C2CN(C(=O)c3sc4c(F)c(C(F)(F)F)ccc4c3Cl)C2)CC1 [Cpd 670],–,20.9%,7.82,650%,pKd (mutant MGL; [6]): 9.00; Kd (mutant MGL; [7]): 0.001 µM
"Cc1c(C(=O)N2CC(N3CCN(C(=O)c4cscn4)CC3)C2)sc2cc(C(F)(F)F)ccc12 [Cpd 674, 1-(1-{[3-Methyl-6-(trifluoromethyl)-1-benzothiophen-2-yl]carbonyl}azetidin-3-yl)-4-(1,3-thiazol-4-ylcarbonyl)piperazine]",8.52,57.7%,7.72,891%,–
O=C(c1nccs1)N1CCN(C2CN(C(=O)c3sc4cc(C(F)(F)F)c(F)cc4c3Cl)C2)CC1 [Cpd 900],–,8.5%,> 8.30,543%,pKd (mutant MGL; [6]): 9.00; Kd (mutant MGL; [7]): 0.001 µM
C/C(=C\c1ccc(Cl)cc1)c1c(C)c(C(=O)N2CC(N3CCN(C(=O)c4nccs4)CC3)C2)nn1-c1ccc(Cl)cc1Cl [Cpd 1010],–,–,> 8.30,–,"pKd (mutant MGL; MGL mutant ThermoFluor Kd, ThermoFluor concentration-response): 7.77; pKd (mutant MGL; MGL mutant ThermoFluor qKd (using qNMR conc.), compound concentration measured by qNMR): 7.40; CFA thermal hypersensitivity Method 1: peak % reversal ([1]; group mean values): 23.4%; Rat Brain 2AG % VehCntrl (%) @ 1 μM (MGL; compound 1 μM): 1953%"
"O=C(c1ccc(-c2cccc(C(F)(F)F)c2)c(F)c1)N1CC(N2CCN(C(=O)c3cscn3)CC2)C1 [Cpd 1070, 1-(1-{[2-Fluoro-3′-(trifluoromethyl)biphenyl-4-yl]carbonyl}azetidin-3-yl)-4-(1,3-thiazol-4-ylcarbonyl)piperazine]",–,25.7%,8.10,551%,"pKd (mutant MGL; [6]): 8.22; inhibition in vivo at 30 mg/kg [1, 5]: 23.1%"
"O=C(c1ccc(-c2cccc(C(F)(F)F)c2)c(Cl)c1)N1CC(N2CCN(C(=O)c3cscn3)CC2)C1 [Cpd 1102, 1-(1-{[2-Chloro-3′-(trifluoromethyl)biphenyl-4-yl]carbonyl}azetidin-3-yl)-4-(1,3-thiazol-4-ylcarbonyl)piperazine]",–,38%,7.89,878%,"pKd (mutant MGL; [6]): 8.22; inhibition in vivo at 30 mg/kg [1, 5]: 45.3%"
"O=C(c1cscn1)N1CCN(C2CN(C(=O)c3ccc(-c4ccccc4)cc3F)C2)CC1 [Cpd 1108, 1-{1-[(3-Fluorobiphenyl-4-yl)carbonyl]azetidin-3-yl}-4-(1,3-thiazol-4-ylcarbonyl)piperazine]",7.20,84.9%,7.85,204%,"inhibition in vivo at 30 mg/kg [1, 5]: 99.2%; 2-AG accumulation, % of vehicle control at 0.1 µM (MGL): 117%; 2-AG accumulation, % of vehicle control at 10 µM (MGL): 456%"
"O=C(c1cccc(-c2ccc(F)cc2F)c1)N1CC(N2CCN(C(=O)c3nccs3)CC2)C1 [Cpd 1117, 1-{1-[(2′,4′-Difluorobiphenyl-3-yl)carbonyl]azetidin-3-yl}-4-(1,3-thiazol-2-ylcarbonyl)piperazine]",6.67,23.2%,7.80,437%,–
O=C(c1cccc(-c2cccc(F)c2)c1)N1CC(N2CCN(C(=O)c3nccs3)CC2)C1 [Cpd 1124],6.60,88.1%,7.72,506%,–
"O=C(c1ccc2c(ccn2-c2ccc(F)cc2F)c1)N1CC(N2CCN(C(=O)c3cscn3)CC2)C1 [Cpd 1139, 1-(2,4-Difluorophenyl)-5-({3-[4-(1,3-thiazol-4-ylcarbonyl)piperazin-1-yl]azetidin-1-yl}carbonyl)-1H-indole]",7.77,43.8%,7.57,654%,–
"O=C(c1ccc2nc(-c3ccccc3)sc2c1)N1CC(N2CCN(C(=O)c3cscn3)CC2)C1 [Cpd 1187, 2-Phenyl-6-({3-[4-(1,3-thiazol-4-ylcarbonyl)piperazin-1-yl]azetidin-1-yl}carbonyl)-1,3-benzothiazole]",6.71,16.3%,7.04,319%,–
O=C(c1cscn1)N1CCN(C2CN(C(=O)c3ccc(-c4ccccc4)cc3Cl)C2)CC1 [Cpd 1221],7.09,44.7%,6.59,198%,"inhibition in vivo at 30 mg/kg [1, 5]: 46.7%; 2-AG accumulation, % of vehicle control at 0.1 µM (MGL): 198%; 2-AG accumulation, % of vehicle control at 10 µM (MGL): 522%"
"O=C(c1ccc2c(ccn2-c2ccc(C(F)(F)F)cc2)c1)N1CCN(C2CN(C(=O)c3nccs3)C2)CC1 [Cpd 1338, 5-({4-[1-(1,3-Thiazol-2-ylcarbonyl)azetidin-3-yl]piperazin-1-yl}carbonyl)-1-[4-(trifluoromethyl)phenyl]-1H-indole]",7.82,86.3%,> 8.30,877%,–
O=C(c1ccc2c(-c3ccc(C(F)(F)F)cc3)c[nH]c2c1)N1CC(N2CCN(C(=O)c3nccs3)CC2)C1 [Cpd 1340],9.00,13.1%,> 8.30,761%,–
"O=C(c1ccc2c(cnn2-c2ccccc2)c1)N1CC(N2CCN(C(=O)c3nccs3)CC2)C1 [Cpd 1360, 1-Phenyl-5-({3-[4-(1,3-thiazol-2-ylcarbonyl)piperazin-1-yl]azetidin-1-yl}carbonyl)-1H-indazole]",8.10,40.5%,> 8.30,576%,"inhibition in vivo at 30 mg/kg [1, 5]: 40.5%"
"O=C(c1ccc2c(ccn2-c2ccc(F)c(F)c2)c1)N1CC(N2CCN(C(=O)c3nccs3)CC2)C1 [Cpd 1362, 1-(3,4-Difluorophenyl)-5-({3-[4-(1,3-thiazol-2-ylcarbonyl)piperazin-1-yl]azetidin-1-yl}carbonyl)-1H-indole]",9.00,186%,> 8.30,635%,–
